Residue numbers refer to the chain shown, from its start. Like-named read-outs stand apart in the source and are kept apart here.
How the values were obtained:
wild-type AR = target: T1, wild-type AR (Homo sapiens, UniProt P10275); assay: Competitive inhibition of [3H]R1881 binding, wild-type AR (LAPC4/PC3-AR cells); settings: read-out: wild-type (LAPC4/PC3-AR), inhibition of [3H]R1881 binding as symbol
T1 construct: the wild-type AR expressed endogenously in LAPC4 cells; endogenous in cells; host or cells: LAPC4 cells (endogenous) and PC3-AR cells (PC-3 stably transfected with human wild-type AR)
T1 sequence (P10275 1-920): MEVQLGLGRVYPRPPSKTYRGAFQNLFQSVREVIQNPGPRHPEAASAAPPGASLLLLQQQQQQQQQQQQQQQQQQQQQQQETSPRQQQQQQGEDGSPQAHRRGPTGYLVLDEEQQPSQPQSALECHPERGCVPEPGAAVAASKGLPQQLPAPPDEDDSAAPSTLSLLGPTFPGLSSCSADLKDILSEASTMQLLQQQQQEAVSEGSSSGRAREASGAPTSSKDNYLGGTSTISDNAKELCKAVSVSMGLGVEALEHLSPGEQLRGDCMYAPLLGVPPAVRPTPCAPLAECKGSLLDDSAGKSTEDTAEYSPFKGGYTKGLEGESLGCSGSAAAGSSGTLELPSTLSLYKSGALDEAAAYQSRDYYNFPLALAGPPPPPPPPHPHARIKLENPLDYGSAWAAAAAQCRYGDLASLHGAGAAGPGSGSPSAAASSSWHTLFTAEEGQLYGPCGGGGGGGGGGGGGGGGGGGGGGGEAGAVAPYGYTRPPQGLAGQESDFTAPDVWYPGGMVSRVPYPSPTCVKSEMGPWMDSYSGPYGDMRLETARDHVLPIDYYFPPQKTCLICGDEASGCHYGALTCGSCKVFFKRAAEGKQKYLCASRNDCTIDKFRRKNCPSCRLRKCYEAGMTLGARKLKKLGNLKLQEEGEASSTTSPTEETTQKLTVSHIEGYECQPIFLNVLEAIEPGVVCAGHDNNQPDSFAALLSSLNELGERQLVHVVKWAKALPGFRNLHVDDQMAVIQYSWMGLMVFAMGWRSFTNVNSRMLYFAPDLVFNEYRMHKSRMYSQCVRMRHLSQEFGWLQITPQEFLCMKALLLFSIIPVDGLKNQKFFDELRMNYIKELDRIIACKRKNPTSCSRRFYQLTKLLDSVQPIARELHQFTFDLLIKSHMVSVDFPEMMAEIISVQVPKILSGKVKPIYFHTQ
Protocol: (§1) In order to determine if the CYP17 inhibitors interact with the AR, competitive binding assays were performed as described previously. The ability of the test compounds (1 nM-10 μM) to displace [^3H]R1881 (5.0 nM) from the AR was determined in LAPC4 cells (wild-type AR), PC3 cells transfected with wild-type AR (PC3-AR), LNCaP cells which express an endogenous AR with a mutation in the ligand binding domain (T877A), and PC3 cells transfected with an AR containing a mutation in the DNA binding domain (T575A).
(§2) The ability of the test compounds to displace [^3H]R1881 (5.0 nM) from the androgen receptor was determined in LAPC4 cells (wild-type AR), PC3 cells transfected with wild-type AR, LNCaP cells which express an endogenous AR with a mutation in the ligand binding domain (T877A), and PC3 cells transfected with an AR containing a mutation in the DNA binding domain (T575A). Cells were plated (2-3×10^5) in 24 well multiwell dishes in steroid-free medium and allowed to attach. The following day the medium was replaced with serum-free, steroid free RPMI supplemented with 0.1% BSA and containing [^3H]R1881 (5 nM), test compounds (1 nM-10 μM), and 1 μM triamcinolone acetonide to saturate progesterone and glucocorticoid receptors. Following a 2 hour incubation period at 37° C., cells were washed twice with ice-cold DPBS and solubilized in DPBS containing 0.5% SDS and 20% glycerol.

T877A AR = target: T2, T877A AR (Homo sapiens, UniProt P10275, T878A); assay: Competitive inhibition of [3H]R1881 binding, T877A AR (LNCaP cells); settings: read-out: T877A (LNCaP), inhibition of [3H]R1881 binding as symbol
T2 construct: endogenous in cells; host or cells: LNCaP cells
T2 sequence (P10275 1-920 T878A): T1 sequence (P10275 1-920) with T878A
Protocol: as §1, §2

LNCaP cells = assay: Cell proliferation assay (XTT), LNCaP cells; settings: Homo sapiens, 168 h
Protocol: (§3) To determine the effect of steroids and novel compounds on cell proliferation, each cell type was transferred into steroid-free medium three days prior to the start of the experiments (steroid-free medium consisted of phenol red free RPMI supplemented with 5% dextran-coated, charcoal treated serum and 1% penicillin/streptomycin solution). Growth studies were then performed by plating cells (1.5×10^4cells/well) in 24-well multiwell dishes (Corning, Inc. Corning, N.Y.). After a 24 hour attachment period, the medium was aspirated and replaced with steroid-free medium containing vehicle or the indicated concentrations of androgens and novel compounds (1 nM-10 μM). Control wells were treated with vehicle (ethanol). […] The medium was changed every three days and the numbers of viable cells were compared by MTT or XTT (LNCaP) assay on the seventh day.
(§4) For the MTT procedure, following incubation of cells for the above mentioned time, 0.5 mg/ml MTT was added to each well and incubated at 37° C. for three hours. Following incubation, the medium was aspirated completely, with care taken not to disturb the formazan crystals. DMSO (500 μl) was used to solubilize these crystals. After slight shaking, the plates were read at 540 nm with a Victor 1420 scanning multi-well spectrophotometer. All results represent the average of a minimum of three wells. Additional control consisted of medium alone with no cells. XTT was performed essentially as MTT, with the deletion of the solubilization step and was preferred for the LNCaP cells that adhere poorly to the plates.
(§5) LNCaP cells were seeded at 15,000 cells/well in 24 well multi-well plates, and LAPC4 cells were seeded at 15,000 cells/well. […] The number of viable cells was compared by MTT assay (LAPC4) or XTT assay (LNCaP) on the 7th day.

LAPC4 cells = assay: Cell proliferation assay (MTT), LAPC4 cells; settings: Homo sapiens, LAPC4, 168 h
Protocol: as §3, §4, §5

[1] = read-out: LNCaP IC50 (μM), DHT +
[2] = read-out: LNCaP IC50 (μM), DHT −
[3] = read-out: LAPC4 IC50 (μM), DHT +
[4] = read-out: LAPC4 IC50 (μM), DHT −

Compound | inhibition at 10 µM (wild-type AR) | inhibition at 10 µM (T877A AR) | IC50 (LNCaP cells; [1]) | IC50 (LNCaP cells; [2]) | IC50 (LAPC4 cells; [3]) | IC50 (LAPC4 cells; [4])
C[C@]12CC[C@H](O)CC1=CC[C@@H]1[C@@H]2CC[C@]2(C)C(c3cccnc3)=CC[C@@H]12 [Abiraterone] | < 20% | < 20% |  |  |  | 
CC(O)(CS(=O)(=O)c1ccc(F)cc1)C(=O)Nc1ccc(C#N)c(C(F)(F)F)c1 (stereo not shown) [Casodex, Bicalutamide] |  |  | 8.6 µM | 4.6 µM | 10 µM | 9 µM
C[C@]12CC[C@H](O)CC1=CC[C@@H]1[C@@H]2CC[C@]2(C)C(n3cnc4ccccc43)=CC[C@@H]12 [VN/124-1, 3β-hydroxy-17-(1H-benzimidazole-1-yl)androsta-5,16-diene] |  |  | 6 µM | 2.6 µM | 3.2 µM | 4 µM
